Measurements published in patent US20250188044A1 (HARBIN MEDISAN PHARMACEUTICAL CO., LTD., priority 2021, published 2025).
“Also recorded” adds a separate entry of the source.

Legend:
[1] = system: PPARα/δ downstream target gene; conditions: mice, 10 mg/kg intragastric, four consecutive days (FIG. 15)
HepG2 cells = assay: Lipid metabolism-associated gene expression of HepG2 cells (qPCR); assay type: cell-based, human; conditions: 8 nM, nM, and 200 nM, 12 h, vs. blank control (FIGS. 1 and 2)
Method: HepG2 cells (human hepatoma cells) were cultured in a 6-well cell culture plate and subjected to adherent culture overnight. […] The old medium was discarded and replaced with drug-containing medium of different concentrations (complete medium without the compound for the blank control group). After dosing, the cells were incubated for 12 h. The medium was discarded and total RNA was extracted by the phenol-chloroform method. After reverse transcription, the real-time quantitative fluorescent PCR experiment (RNA extraction, reverse transcription, quantitative PCR reagents were all purchased from Nanjing Vazyme Biotech Co., Ltd.) was performed using ACTB as an internal reference, and the expression of PDK4, ACADVL, and CPT1A, which are important genes in oxidative metabolism of lipids, was detected according to the steps in the product instructions (the primer sequences are shown in Table 7). […] Some other compounds of the present invention also have similar activity.

[2] = system: liver fibrosis model mice; assay: Carbon tetrachloride-induced liver fibrosis mouse model; assay type: in vivo, C57 mice
Method: Animals: 60 male C57 mice, SPF grade, 8 weeks old, weighing about 20 g, purchased from Beijing Vital River Laboratory Animal Technology Co., Ltd. All animals were kept on a 12-h alternating circadian rhythm and were fed ad libitum.
Reagent: positive drug IVA337 (Pan-PPAR agonist, currently in an anti-NASH phase II clinical trial), which was prepared according to the method in the literature (J. Med. Chem., 2018, 61, 2246); carbon tetrachloride (purchased from Shanghai Aladdin Biochemical Technology Co., Ltd.), and sunflower seed oil (purchased from Shanghai Yuanye Biotech Co., Ltd.).
. Mice were given food and water normally and subjected to modeling for 3 weeks. The model group and the administration groups were each injected twice a week with a 25% CCl4 oil solution at a dose of 2 mL/kg, and the control group was injected with an oil solvent at the same volume.
. The administration was performed for 3 weeks, and the mice were given food and water normally. The mice in each group were weighed daily, and their body weight, hair, feces, and activity were carefully observed and recorded.
At 30 h after the sixth injection of CCl4, the mice were dissected for the samples. Blood was taken from the orbit, and then the liver was taken after the mice were sacrificed. The right lobular tissue of liver was fixed with 4% paraformaldehyde and used for HE staining of sections.
The pretreated tissues were sent to ServiceBio Biotechnology Co., Ltd. to make HE stained sections and Sirius red stained sections.
The liver tissue stored at −80° C. was taken out and placed in liquid nitrogen, about 10 mg of liver tissue was rapidly cut off, homogenized with a homogenizer after about 500 μL of precooled tissue lysis buffer was added, and then lysed on ice for 30 min. The lysate was centrifuged at 12,000 rpm for 15 min at 4° C., and 170 μL of supernatant was added to a clean EP tube, from which 10 μL of supernatant was taken for BCA protein quantification. 40 μL of 5*loading buffer was added to the rest of protein supernatant for boiling for denaturation, followed by SDS-PAGE electrophoresis, and the protein was transferred onto a PVDF membrane for incubation and elution of related antibodies. Finally, imaging analysis was performed by using a chemiluminescence apparatus.
The liver tissue stored at −80° C. was taken out and placed in liquid nitrogen, about 200 mg of the liver tissue was rapidly cut off, and hydroxyproline in the liver tissue was detected according to the method in the product instructions (Beijing Solarbio Science & Technology Co., Ltd., BC0255).

[3] = Metabolic stability in human liver microsomes; assay type: in vitro ADME
[4] = Pharmacokinetic evaluation in rats; assay type: in vivo, SD rats
Method: Animals: 6 male SD rats, SPF grade, sourced from the animal repository of Shanghai Medicilon research institution.
The dose in the oral administration group was 10 mpk, and the dose in the intravenous injection group was 2 mpk.
All samples were centrifuged at 18,000 g for 7 min in a low-temperature centrifuge, and plasma was isolated. The content of the compound in the plasma was determined by LC-MS/MS-18, and relevant pharmacokinetic parameters were calculated from the plasma concentration data at different time points.

[5] = system: nuclear receptors other than PPAR (RARα, RARγ, RARβ, FXR, RXRα, RXRγ, RXRβ, VDR, LXRα, LXRβ, THβ, PXR, CAR); assay: Nuclear receptor selectivity, Gal4-LBD reporter gene assays in Cos-7 cells; assay type: cell-based, human; conditions: 1 μM, relative agonistic rate (FIG. 16)
NASH model mice = assay: CDAA-induced NASH mouse model; assay type: in vivo, C57 mice
[6] = system: nonalcoholic steatohepatitis (NASH); conditions: NCT02704403; cited from earlier work

Structure (SMILES): Cc1cc(Cn2ncn(-c3ccc(OC(F)(F)F)cc3)c2=O)cc(C)c1OC(C)(C)C(=O)O [Compound 61, 2-(2,6-Dimethyl-4-((5-oxo-4-(4-(trifluoromethoxy)phenyl)-4,5-dihydro-1H-1,2,4-triazo 1-1-yl)methyl)phenoxy)-2-methylpropionic acid]
- target genes significantly upregulated in the skeletal muscle [1]: 16
- expression of PDK4, ACADVL, and CPT1A (HepG2 cells): improve the expression of PDK4, ACADVL, and CPT1A in a dose-dependent manner with significance
- anti-liver fibrosis efficacy compared with IVA337 at the same dose ([2]; CCl4 liver fibrosis model mice, 10 mg/kg intragastric daily, 3 weeks, 10 mg/kg): stronger effect than IVA337 at the same dose; also recorded: better effect than IVA337 at the same dose; also recorded: better efficacy than a positive control drug IVA337 at the same dose
- hepatic hydroxyproline level ([2]; CCl4 liver fibrosis model mice, 3, 10, 30 mg/kg intragastric daily, 3 weeks (FIG. 11)): down-regulate the hepatic hydroxyproline level of liver fibrosis model mice in a dose-dependent manner
- αSMA and Collal protein levels in liver ([2]; CCl4 liver fibrosis model mice, Western blot (FIG. 12)): inhibit the increase of αSMA and Collal protein levels due to modeling in a dose-dependent manner
- HE staining: infiltration of inflammatory cells in the portal area ([2]; CCl4 liver fibrosis model mice, liver sections (FIG. 13)): reduce the infiltration of inflammatory cells in the portal area due to modeling in a dose-dependent manner
- Sirius red staining: collagen deposition ([2]; CCl4 liver fibrosis model mice, liver sections (FIG. 14)): reduce collagen deposition due to modeling in a dose-dependent manner
- metabolic stability in human liver microsomes (in words) ([3]; human liver microsomes): very good metabolic stability in human liver microsomes
- half-life ([3]; human liver microsomes 0.75 mg/mL, NADPH, 0-60 min): > 2 h
- Time-to-peak Tmax ([4]; intravenous injection, 2 mpk): 0.08 ± 0.00 h
- Bioavailability F ([4]; oral administration, 10 mpk): 86.35%
- Time-to-peak Tmax ([4]; oral administration, 10 mpk): 1.42 ± 1.01 h
- agonistic effect on nuclear receptors other than PPAR [5]: no significant agonistic effect on nuclear receptors other than PPAR
- anti-NASH efficacy compared with GFT505 and IVA337 at the same dose (NASH model mice; NASH model mice, 10 mg/kg intragastric daily, 6 weeks, 10 mg/kg): stronger liver enzyme-lowering effect than GFT505 and IVA337 at the same dose; also recorded: stronger effect in resisting liver inflammation than GFT505 and IVA337; also recorded: stronger effect in resisting liver fibrosis than GFT505 and IVA337; also recorded: better effect than GFT505 and IVA337 at the same dose; also recorded: better efficacy than positive control drugs GFT505 and IVA337 at the same dose; also recorded: better anti-NASH efficacy than clinically investigational PPAR agonists GFT505 and IVA337 at the same dose
- liver mRNA expression levels of Tnf, IIIb, Ccl4, and Adgre1 (NASH model mice; NASH model mice, 3, 10, 30 mg/kg intragastric daily, 6 weeks (FIG. 6)): inhibit the increase of mRNA expression levels of Tnf, IIIb, Ccl4, and Adgre1 due to modeling in a dose-dependent manner
- liver mRNA expression levels of Acta2, Tgfb1, Collal, and Col3a1 (NASH model mice; NASH model mice, 3, 10, 30 mg/kg intragastric daily, 6 weeks (FIG. 7)): significantly inhibit the increase of mRNA expression levels of Acta2, Tgfb1, Collal, and Col3a1 due to modeling
- levels of ALT and AST in serum (NASH model mice; NASH model mice, 3, 10, 30 mg/kg intragastric daily, 6 weeks (FIGS. 4 and 5)): down-regulate the levels of ALT and AST in serum of NASH model mice in a dose-dependent manner
- HE staining: infiltration of inflammatory cells in the portal area (NASH model mice; NASH model mice, liver sections (FIG. 8)): reduce the infiltration of inflammatory cells in the portal area due to modeling in a dose-dependent manner
- Sirius red staining: collagen deposition (NASH model mice; NASH model mice, liver sections (FIG. 9)): reduce collagen deposition due to modeling in a dose-dependent manner
- Oil red staining: lipid accumulation (NASH model mice; NASH model mice, liver sections (FIG. 10)): reduce lipid accumulation due to modeling in a dose-dependent manner

Structure (SMILES): CSc1ccc(C(=O)/C=C/c2cc(C)c(OC(C)(C)C(=O)O)c(C)c2)cc1 [GFT505, Elafibranor]
- efficacy in anti-NASH phase III clinical trial, interim analysis [6]: substantially ineffective
